Laboratory results: ChEMBL document CHEMBL1141379, “Selective inhibitory activity against MAO and molecular modeling studies of 2-thiazolylhydrazone derivatives” (J Med Chem, 2007)

Target: T1, Amine oxidase [flavin-containing] A (Bos taurus, UniProt P21398)
T1 sequence (P21398 whole entry): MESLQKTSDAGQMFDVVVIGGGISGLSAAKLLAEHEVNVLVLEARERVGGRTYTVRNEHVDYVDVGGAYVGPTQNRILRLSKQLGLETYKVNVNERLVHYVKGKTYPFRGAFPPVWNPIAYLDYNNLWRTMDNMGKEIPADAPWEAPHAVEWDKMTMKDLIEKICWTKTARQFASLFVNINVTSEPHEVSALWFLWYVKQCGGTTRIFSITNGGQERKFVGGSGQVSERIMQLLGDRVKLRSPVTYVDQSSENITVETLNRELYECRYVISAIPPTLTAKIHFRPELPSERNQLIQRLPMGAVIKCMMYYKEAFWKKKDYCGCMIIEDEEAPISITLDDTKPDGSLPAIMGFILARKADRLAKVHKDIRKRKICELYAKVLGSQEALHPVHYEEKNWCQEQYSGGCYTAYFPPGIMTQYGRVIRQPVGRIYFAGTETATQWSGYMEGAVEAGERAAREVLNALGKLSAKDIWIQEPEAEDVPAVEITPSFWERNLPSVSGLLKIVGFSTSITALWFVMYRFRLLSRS
Test: Inhibition of bovine brain mitochondria MAOA

SMILES | Ki [nM]
Cc1csc(N/N=C/c2ccccc2C)n1 | 35.5
COc1ccc(/C=N/Nc2nc(-c3ccccc3)cs2)cc1OC | 30.2
COc1ccc(/C=N/Nc2nc(C)cs2)cc1OC | 13.2
Cc1csc(N/N=C/c2ccccc2)n1 | 7.24
C(=N\Nc1nc(-c2ccccc2)cs1)/c1ccccc1 | 1200
COc1ccc(/C=N/Nc2nc(-c3ccccc3)cs2)cc1 | 50.1
Clc1ccc(/C=N/Nc2nc(-c3ccccc3)cs2)cc1 | 100
Cc1csc(N/N=C/c2ccc(Cl)cc2Cl)n1 | 12
Clc1ccc(/C=N/Nc2nc(-c3ccccc3)cs2)c(Cl)c1 | 93.3
Cc1csc(N/N=C/c2ccc(Cl)cc2)n1 | 38
COc1ccc(/C=N/Nc2nc(C)cs2)cc1 | 19.1
